Reference: US12691118B2, “Allosteric agonists and positive allosteric modulators of Glucagon-like peptide 1 receptor” (University of the Sciences, priority 2019, dated 2026)
“Also recorded” adds a separate entry of the source. Each block holds one molecule with its values, some of them ahead of it. Ends that are not written are not given here.

What was measured:
[1] = target: T1, human GLP-1R (Homo sapiens, UniProt P43220); test: CRE luciferase reporter assay in HEK293 cells transiently expressing human GLP-1R; type: cell-based; details: for GLP-1R activity stimulated by GLP-1 in combination with compound vs GLP-1 alone: GLP-1 0.014 nM-145 nM
T1 construct: Flag (N); host or cells: HEK293 cells stably expressing CRE/CREB luciferase reporter (BPS Bioscience #60515)
Protocol: HEK293 cells stably expressing CRE/CREB Reporter (luciferase) were cultured in RPMI medium supplemented with 8% (v/v) fetal bovine serum, 2% (v/v) penicillin/streptomycin, and 100 μg/ml of Hygromycin B. Cells were maintained in an incubator at 37° C. with 5% CO2. Cells were seeded into 6-well cell culture plates one day before transfection. After overnight incubation, one well of cell was transiently transfected with 3.4 μg of human GLP-1R or empty vector, respectively, using lipofectamine 2000. After 4 hours of transfection, transfection medium was replaced by RPMI medium supplemented with 5% (v/v) fetal bovine serum and 2% (v/v) penicillin/streptomycin. After 24 hours of incubation, cells were trypsinized and seeded into 96 well cell culture plates (5.5× 10^4 cells per well) and maintained at 37° C. in 5% CO2 incubator for 24 hours. The cells were starved using RPMI with 0.5% sera. After 24 hours of starvation, the transfected cells were treated with compounds as indicated.
(§1) Compounds dissolved in 100% DMSO were diluted to indicated concentration in RPMI 1640 (0.5% DMSO included for all cell culture). After 4 hours of treatment, cells were harvested by cold luciferase cell culture lysis buffer and kept on shaker for 10 min at 4° C. Luciferase activity was measured using luciferin substrate and luminescence was read by Wallac 1420 multiplate reader. Luciferase activity of HEK293 reporting cells cultured using 0.5% DMSO and full RPMI medium was used as a vehicle control. Protein concentration of each well was determined by Bradford assay.
The concentration-dependent dose response curve was generated using Graph Pad Prism 6.0 for Mac (GraphPad Software Inc., San Diego, CA). The curves were fitted based on sigmoidal dose response with the bottom parameter being kept 0. The EC50 value was calculated from Prism. The statistical difference between different groups was analyzed by 2-way ANOVA module in Prism.

[2] = target: T2, Vasoactive Intestinal Polypeptide Receptor 1 (VIPR1) (Homo sapiens, UniProt P32241); test: Non-specific effect on VIPR1, luciferase assay in HEK293 cells overexpressing VIPR1; type: cell-based; details: Ib 23.5 μM; VIPR peptide agonist 0.014 nM-145 nM
T2 construct: host or cells: HEK293 cells stably expressing CRE/CREB luciferase reporter
T2 sequence (P32241 31-457): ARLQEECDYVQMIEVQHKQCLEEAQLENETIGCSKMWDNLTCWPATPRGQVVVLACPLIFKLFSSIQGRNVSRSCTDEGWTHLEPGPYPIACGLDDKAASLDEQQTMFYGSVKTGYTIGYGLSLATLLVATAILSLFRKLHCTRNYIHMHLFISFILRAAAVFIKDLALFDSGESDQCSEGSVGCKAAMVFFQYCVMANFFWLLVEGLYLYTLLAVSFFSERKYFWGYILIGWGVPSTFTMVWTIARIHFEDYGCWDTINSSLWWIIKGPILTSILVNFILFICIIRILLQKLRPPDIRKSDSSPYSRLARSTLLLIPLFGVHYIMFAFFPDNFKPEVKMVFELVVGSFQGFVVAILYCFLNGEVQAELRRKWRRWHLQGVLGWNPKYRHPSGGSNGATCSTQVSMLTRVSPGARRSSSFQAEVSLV
Protocol: as §1
HEK293 cells stably expressing CRE/CREB Reporter (luciferase) were cultured in RPMI 1640 supplemented with 8% (v/v) fetal bovine serum, 2% (v/v) penicillin/streptomycin, and 100 μg/ml of Hygromycin B. Cells were maintained at 37° C. with 5% CO2. Cells were seeded into 6-well cell culture plates one day before transfection. After overnight incubation, cells were transiently transfected with 3.4 μg of VIPR1, using Lipofectamine 2000. After 4 hours of transfection, medium was replaced by RPMI supplemented with 5% (v/v) fetal bovine serum. After 24 hours of incubation, cells were trypsinized and seeded into 96 well cell culture plates (5.5×10^4 cells per well) and maintained at 37° C. in 5% CO2 for 24 hours. After 24 hours of incubation, the cells were starved with RPMI with 0.5% sera. […]

[3] = test system: INS-1 832/13 cells; test: Glucose stimulated insulin production in INS-1 832/13 cells; type: cell-based, rat; details: 16.7 mM glucose
Protocol: INS-1 832/13 cells were cultured in RPMI 1640 supplemented with 2 mM L-glutamine, 1 mM sodium pyruvate, 10% FBS, 10 mM HEPES, 100 units/ml penicillin, 100 μg/ml streptomycin, and 50 μM β-mercaptoethanol. Cells were maintained in an incubator at 37° C. with 5% CO2. To determine the effect of GLP-1R agonist Ia and PAM Ib on insulin production, INS-1 cells were seeded onto 24 well plates. After 48 hours of incubation, cells were washed twice with 200 μl of Krebs-Ringer Bicarbonate (KRB) buffer and starved for 2 hours in fresh KRB supplemented with 0.1% serum. […] After 20 minutes, the supernatant was collected, centrifuged at 1000 rpm for 5 min at 4° C., and aliquoted and stored at −20° C. These samples were used to determine insulin concentration using insulin detection kit ELISA following the manual.

[4] = Compound stability (statement); type: physicochemical

T1 sequence (P43220 24-463): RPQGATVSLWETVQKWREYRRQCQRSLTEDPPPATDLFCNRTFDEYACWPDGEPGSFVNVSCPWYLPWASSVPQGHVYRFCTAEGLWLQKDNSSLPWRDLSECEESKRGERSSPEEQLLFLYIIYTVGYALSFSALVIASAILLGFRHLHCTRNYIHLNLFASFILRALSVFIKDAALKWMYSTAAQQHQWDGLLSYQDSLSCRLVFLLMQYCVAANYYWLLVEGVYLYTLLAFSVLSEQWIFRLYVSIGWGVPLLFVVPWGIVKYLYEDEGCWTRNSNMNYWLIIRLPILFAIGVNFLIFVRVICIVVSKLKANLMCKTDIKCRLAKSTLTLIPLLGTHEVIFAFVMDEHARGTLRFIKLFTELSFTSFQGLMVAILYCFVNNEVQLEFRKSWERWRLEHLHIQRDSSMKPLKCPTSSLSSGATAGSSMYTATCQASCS

GLP-1R activity stimulated by GLP-1 in combination with compound vs GLP-1 alone ([1]; Ib 23.5 μM): significantly increased
Molecule: CCOC(=O)c1c(N)sc2c1CCCC2C (centres unmarked) [Compound Ib, ethyl 2-amino-7-methyl-4,5,6,7-tetrahydrobenzo[b]thiophene-3-carboxylate]
non-specific activity on VIPR1 (VIPR1 activity with VIPR agonist in combination with Ib vs agonist alone) [2]: did not induce non-specific activity; also recorded: no potential non-specific activity on VIPR1 | insulin secretion, Ib in combination with GLP-1 vs GLP-1 alone ([3]; Ib 11.75 μM + GLP-1 0.18 μM): more than 2.5 fold | amount of insulin produced by Ib compared with vehicle control ([3]; Ib 11.75 μM alone): no significant difference

Molecule: GLP-1: GLP-1R peptide agonist (Sigma #9416), endogenous ligand of GLP-1R (HAEGTFTSDVSSYLEGQAAKEFIAWLVKGR; ends and bridges not checked; UniProt P01275 98-127, looked up) [reference compound]
insulin production compared to vehicle control ([3]; GLP-1 0.18 μM, both time points): more than two-fold

GLP-1R activity stimulated by GLP-1 in combination with compound vs GLP-1 alone ([1]; Ic 71 μM): significantly increased | potency as PAM (statement) ([1]; compared with Ib): less potent | stability (statement) [4]: unstable
Molecule: CC1CCCc2c1sc1nc(S)n(N)c(=O)c21 (centres unmarked) [Compound Ic, 3-amino-2-mercapto-8-methyl-5,6,7,8-tetrahydrobenzo[4,5]thieno[2,3-d]pyrimidin-4(3H)-one]
